Data reported in US20190070140A1, “COMPOSITION COMPRISING PROTECTIN DX AS ACTIVE INGREDIENT FOR PREVENTING OR TREATING HYPERLIPIDEMIA OR FATTY LIVER DISEASE” (Solvit P&F, priority 2017, published 2019).

Legend:
[1] = tested on: FOXO1; experiment: Western-blot assay of FOXO1 acetylation in HepG2 cells (immuno-precipitation); format: cell-based, Human; settings: 0 to 2 μM PDX, 24 hours, FIG. 3B
Description: After collecting HepG2 cells, protein was extracted from the cells with a buffer (PRO-PREF; Intron Biotechnology, Seoul, Korea) at 4° C. for 1 hour. A protein sample (35 μg) was applied to 12% SDS-PAGE, transferred to a nitrocellulose film (Amersham Bioscience, Westborough, Mass., USA), detected with a primary antibody, followed by probing with a secondary antibody and another secondary antibody conjugated with horseradish […] (Santa Cruz Biotechnology). The sample was detected by ECL kit. Whole protein of HepG2 cell was extracted using an immune-precipitation buffer (IP buffer: 50 mM Tris-HCl, pH 7.8, 150 mM NaCl, 1% IGEPAL CA630) and then diluted to a concentration of 1 mg/mL. A polyclonal antibody to FOXO1 (Santa Cruz Biotechnology) diluted 1:150 was added to the mixture and the sample was incubated at 4° C. overnight. After incubation, each of the samples was provided with 50 μL of a protein A/G-Sepharose bead suspension (Santa Cruz Biotechnology), followed by gently mixing the same at 4° C. for 1 hour. The treated samples were subjected to centrifugation at 12,000 rpm for 30 seconds; and the beads were washed in IP buffer three times. The isolated beads were suspended again in 1×SDS-PAGE loading buffer, heated at 95° C. for 5 minutes, followed by vortexing and flash-centrifugation. […]

[2] = tested on: SREBP1, FAS and SCD1; experiment: Western-blot assay of adipogenesis-related genes in livers of HFD mice; format: in vivo, mouse; settings: PDX i.p. 1 μg/mice/day for 8 weeks, vs HFD, FIG. 5B
Description: (§1) The present study has received the approval of the Institutional Animal Review Committee (Institutional Animal Care and Use Committee in Korea University, Seoul, Korea). The animal experiment was conducted according to the Guide for Care and Use of Laboratory Animals (NH publication, 8th Ed., 2011). A control group and a group of male C57BL/6J(B6) mice at 8 weeks of age were subjected to a normal diet (ND, Brogaarden, Gentofte, Denmark) and a high fat diet (HFD, Research Diets, New Brunswick, N.J., USA) for 8 weeks, respectively. The HFD (high fat diet) group was provided with intra-peritoneal injection of PDX for 8 weeks (1 μg/mice/day). An ethanol injection group was used as a control group. […] A protein sample (35 μg) was applied to 12% SDS-PAGE, transferred to a nitrocellulose film (Amersham Bioscience, Westborough, Mass., USA), detected with a primary antibody, followed by probing with a secondary antibody and another secondary antibody conjugated with horseradish […] (Santa Cruz Biotechnology). The sample was detected by ECL kit. The present inventors have assessed PDX effects upon lipid accumulation in a mouse. For this purpose, a liver cut section from a mouse was subjected to histological assay and western-blot assay through H&E staining and Oil-Red-O staining, while TG accumulation was measured using a TG analysis kit.

[3] = tested on: influenza virus; settings: through RNA export system; reported; cited from earlier work
[4] = tested on: IRE-1, eIF2α and CHOP; experiment: Western-blot assay of ER stress markers in livers of HFD mice; format: in vivo, mouse; settings: PDX i.p. 1 μg/mice/day for 8 weeks, FIG. 5C
Description: as §1

[5] = tested on: ORP150; experiment: Western-blot assay of ORP150 expression in livers of HFD mice; format: in vivo, mouse; settings: PDX i.p. 1 μg/mice/day for 8 weeks, FIG. 5D
Description: as §1

[6] = tested on: HFD diet mouse; experiment: Hepatic steatosis in HFD diet mouse: H&E and Oil-Red-O staining, TG analysis kit; format: in vivo; settings: HFD mice, PDX i.p. 1 μg/mice/day for 8 weeks
Description: (§2) The present study has received the approval of the Institutional Animal Review Committee (Institutional Animal Care and Use Committee in Korea University, Seoul, Korea). The animal experiment was conducted according to the Guide for Care and Use of Laboratory Animals (NH publication, 8th Ed., 2011). A control group and a group of male C57BL/6J(B6) mice at 8 weeks of age were subjected to a normal diet (ND, Brogaarden, Gentofte, Denmark) and a high fat diet (HFD, Research Diets, New Brunswick, N.J., USA) for 8 weeks, respectively. The HFD (high fat diet) group was provided with intra-peritoneal injection of PDX for 8 weeks (1 μg/mice/day). An ethanol injection group was used as a control group.
HepG2 cells and a cut section of the liver in a mouse were stained by Oil-Red-O staining method, in order to determine cellular triglyceride such as triglyceride, that is, TG. The liver cells were fixed with 10% formalin for 40 minutes, and then stained with Oil-Red-O solution (Sigma) at 37° C. for 1 hour. A content of Oil-Red-O stained TG was quantified by adding isopropanol to each of the samples. The mixture was gently stirred at 25° C. for 8 minutes. Lastly, 100 μl of isopropanol-extracted sample was analyzed by a spectrophotometer at 510 nm.
Total lipids were extracted using a mixture of 2:1 chloroform:methanol (2:1, v/v). An organic layer was dissolved in 60% methanol immediately after drying the same. The extracted TG was measured by a colormetric TG analysis kit according to instructions of the manufacturer (Biovision, Milpitas, Calif., USA).
The present inventors have assessed PDX effects upon lipid accumulation in a mouse. For this purpose, a liver cut section from a mouse was subjected to histological assay and western-blot assay through H&E staining and Oil-Red-O staining, while TG accumulation was measured using a TG analysis kit.

[7] = Body weight, liver weight and epididymal fat content of HFD mice; format: in vivo, mouse; settings: PDX i.p. 1 μg/mice/day for 8 weeks, compared to HFD diet mice
Description: as §2, with “group. According to the above experimental procedures conducted for 8 weeks, the present inventors measured body weights, daily energy intakes, liver weights and epididymal fat contents, with respect to five mice per group.” for “group.”

## CC/C=C\C[C@H](O)/C=C/C=C\C=C\[C@@H](O)C/C=C\C/C=C\CCC(=O)O [PDX, 10S,17S-dihydroxy-docosa-4Z,7Z,11E,13Z,15E,19Z-hexaeonic acid]
[1]; HepG2 cells transfected with AMPK siRNA
  PDX effects of reducing FOXO1 acetylation: inhibited
[1]; HepG2 cells, scramble siRNA
  FOXO1 acetylation: reduced depending upon PDX concentration
[2]
  expression of adipogenesis-related genes SREBP1, FAS and SCD1 in the liver: significantly reduced
[3]
  replication of influenza virus: inhibits
[4]
  liver ER stress markers IRE-1, eIF2α and CHOP: inhibited
[5]
  ORP150 expression suppressed in the liver by HFD: remarkably recovered
[6]; compared to HFD diet group, FIG. 5A left
  intracellular fat deposit rate (stained liver cut section): decrease
[6]; vs HFD, FIG. 5A
  accumulation of triglyceride in the liver: considerably reduced
[6]; FIG. 5A left
  hepatic fibrosis (stained liver cut section): very little hepatic fibrosis
[7]; FIG. 6A
  body weights: significantly reduced
[7]; FIG. 6C
  liver weights: significantly decreased
[7]; FIG. 6D
  epididymal fat contents: significantly decreased
